{
  "source": "ChEMBL document CHEMBL3817811",
  "about": "“Protective effect of α-mangostin against iodixanol-induced apoptotic damage in LLC-PK1 cells” (Bioorg Med Chem Lett, 2016)",
  "key": {"LLC-PK1 [1]": {"tested_on": "LLC-PK1", "assay": "Cytoprotective activity against 25 mg/ml iodixanol-induced cell damage in pig LLC-PK1 cells assessed as restoration of cell viability at 5 uM preincubated for 2 hrs followed by iodixanol addition measured after 3 hrs by MTT assay relative to control", "assay_type": "functional, Sus scrofa"}, "LLC-PK1 [2]": {"tested_on": "LLC-PK1", "assay": "Inhibition of JNK phosphorylation in pig LLC-PK1 cells at 2.5 to 5 uM preincubated for 2 hrs followed by iodixanol addition measured after 3 hrs by western blot analysis", "assay_type": "cell-based", "details": "Sus scrofa"}, "LLC-PK1 [3]": {"tested_on": "LLC-PK1", "assay": "Cytoprotective activity against 25 mg/ml iodixanol-induced cell damage in pig LLC-PK1 cells assessed as inhibition of cleaved caspase-3 expression at 2.5 to 5 uM preincubated for 2 hrs followed by iodixanol addition measured after 3 hrs by western blot analysis", "assay_type": "functional, cell-based", "details": "Sus scrofa"}, "LLC-PK1 [4]": {"tested_on": "LLC-PK1", "assay": "Cytoprotective activity against 25 mg/ml iodixanol-induced cell damage in pig LLC-PK1 cells assessed as inhibition of caspase-3 enzyme activity using DEVD-pNA substrate at 2.5 to 5 uM preincubated for 2 hrs followed by iodixanol addition and subsequent incubation for 3 hrs followed by substrate addition measured after 1 hr by microplate reader analysis", "assay_type": "functional, cell-based", "details": "Sus scrofa"}, "LLC-PK1 [5]": {"tested_on": "LLC-PK1", "assay": "Cytotoxicity against pig LLC-PK1 cells assessed as reduction in cell viability at 1 to 10 uM incubated for 2 hrs by MTT assay", "assay_type": "cell-based, Sus scrofa", "details": "llc-pk1, 2 h"}, "LLC-PK1 [6]": {"tested_on": "LLC-PK1", "assay": "Cytoprotective activity against 25 mg/ml iodixanol-induced apoptosis in pig LLC-PK1 cells assessed as reduction in dead cells preincubated for 2 hrs followed by iodixanol addition measured after 3 hrs by annexin V Alexa Fluor 488/propidium iodide staining based cytometry", "assay_type": "functional, cell-based", "details": "Sus scrofa"}, "LLC-PK1 [7]": {"tested_on": "LLC-PK1", "assay": "Inhibition of p38 phosphorylation in pig LLC-PK1 cells at 2.5 to 5 uM preincubated for 2 hrs followed by iodixanol addition measured after 3 hrs by western blot analysis", "assay_type": "cell-based", "details": "Sus scrofa"}, "LLC-PK1 [8]": {"tested_on": "LLC-PK1", "assay": "Cytoprotective activity against 25 mg/ml iodixanol-induced cell damage in pig LLC-PK1 cells assessed as restoration of cell viability preincubated for 2 hrs followed by iodixanol addition measured after 3 hrs by MTT assay", "assay_type": "functional, cell-based", "details": "Sus scrofa"}, "LLC-PK1 [9]": {"tested_on": "LLC-PK1", "assay": "Inhibition of ERK phosphorylation in pig LLC-PK1 cells at 2.5 to 5 uM preincubated for 2 hrs followed by iodixanol addition measured after 3 hrs by western blot analysis", "assay_type": "cell-based", "details": "Sus scrofa"}},
  "note": "Active and inactive are the calls of the source. No cut-off for these calls is given here.",
  "data": [
    {"smiles": "COc1c(O)cc2oc3cc(O)c(CC=C(C)C)c(O)c3c(=O)c2c1CC=C(C)C", "note": "[MANGOSTIN]", "values": [
      {"measurement": "Activity", "setting": "LLC-PK1 [1]", "value": "<=90.42%"},
      {"measurement": "inhibition", "setting": "LLC-PK1 [2]", "value": "Active"},
      {"measurement": "inhibition", "setting": "LLC-PK1 [3]", "value": "Active"},
      {"measurement": "inhibition", "setting": "LLC-PK1 [4]", "value": "Active"},
      {"measurement": "Activity", "setting": "LLC-PK1 [5]", "value": "Non-toxic"},
      {"measurement": "Activity", "setting": "LLC-PK1 [6]", "value": "Dose-dependent effect"},
      {"measurement": "inhibition", "setting": "LLC-PK1 [7]", "value": "Active"},
      {"measurement": "Activity", "setting": "LLC-PK1 [8]", "value": "Dose-dependent effect"},
      {"measurement": "inhibition", "setting": "LLC-PK1 [9]", "value": "Active"}
    ]}
  ]
}
